This note sets out measurements from patent US8058243B2, “Method for treating a brain cancer with ifenprodil” (HSC Research and Development Limited Partnership, priority 2006, dated 2011).

Each structure is given as a SMILES string. Structures can show the parent of a compound that is named as a salt. Where two headings read alike, the source gives them in different places.

The subject of this assay is murine neural precursor cells (neurosphere cultures). Kind of assay: HTS of LOPAC library against secondary neurosphere cultures, MTT proliferation assay at 3 μM, day 7 (z score, P value). The class given is cell-based, mouse. A general note: Tetrazolium assays rely on reduction of a dye to a coloured formazan, in cell work by metabolically active cells.
The mark [1] stands for this setting: LOPAC primary screen, neurosphere MTT proliferation, 3 μM, day 7.
The mark [2] stands for this setting: yes = significantly inhibited neurosphere proliferation (P<0.01) in the primary screen.
Setting [3] is: primary LOPAC screen, 3 μM, MTT, neurosphere proliferation.
Where [4] appears, read: yes/no: significantly inhibited neurosphere proliferation in the primary screen.
Where [5] appears, read: yes/no: significantly inhibited neurosphere proliferation in primary screen.
Where [6] appears, read: LOPAC library screen at 3 μM, secondary neurosphere cultures, MTT.
Where [7] appears, read: LOPAC library screen, 3 μM, MTT, neurosphere cultures.
Setting [8] is: yes/no: significantly inhibited neurosphere proliferation (P<0.01) in primary screen.
Where [9] appears, read: LOPAC library screen, 3 μM, MTT, secondary neurosphere cultures, day 7.
Where [10] appears, read: LOPAC screen, neurosphere MTT proliferation, 3 μM, day 7.
[11] abbreviates: yes/no: significantly inhibited neurosphere proliferation (P<0.01) in the primary screen.

With `Cc1ccc(Cl)c(Nc2ccccc2C(=O)O)c1Cl` [Meclofenamic acid sodium], for the setting “LOPAC library screen at 3 μM, MTT, secondary neurosphere cultures, screened in singlets”, the “Z Score” value was found to be 2.233. The molecule further yielded a Z score under setting [1] of 2.233. Moreover, the Activity entry under setting [2] is given as “no”.

In the case of `Cl.NC[C@@H]1O[C@H](C23CC4CC(CC(C4)C2)C3)Cc2c1ccc(O)c2O` [A-77636 hydrochloride], the “Z Score” value was 1.44. In addition, the Z score under setting [3] is listed as 1.440. Further, under setting [4], the Activity entry is “no”.

As for `CC(C)C[C@H](NP(=O)(O)O[C@@H]1O[C@@H](C)[C@H](O)[C@@H](O)[C@H]1O)C(=O)N[C@@H](Cc1c[nH]c2ccccc12)C(=O)O` [Phosphoramidon disodium], for the setting “168 h, 3 µM”, the “Z Score” value was −0.5097 and the Z score is reported as −0.510. Besides, under setting [5], the Activity entry is given as “no”.

Consider `O=c1onc2n1-c1cc(Br)ccc1OC2` [NS 2028], for which the “Z Score” value is listed as −2.684. Further, the Z score under setting [1] is −2.684. In addition, the Activity entry under setting [2] is “yes”.

In the case of `COCc1nc2c([nH]1)c(=O)n(C)c(=O)n2CC(C)C` [8-Methoxymethyl-3-isobutyl-1-methylxanthine], under setting [6], the “Z Score” value was −0.3403. Also, the Z score under setting [1] is −0.340. The Activity result under setting [2] is “no”.

In the case of `NC[C@@H]1O[C@H](O[C@H]2[C@@H](O)[C@H](O[C@@H]3[C@@H](O)[C@H](N)C[C@H](N)[C@H]3O[C@H]3O[C@H](CO)[C@@H](O)[C@H](O)[C@H]3N)O[C@@H]2CO)[C@H](N)[C@@H](O)[C@@H]1O.O=S(=O)(O)O` [Paramomycin sulfate], under setting [1], the Z score was 0.821. Under setting [5], the Activity result is listed as “no”.

Turning to `O=C(O)c1cc(=O)c2ccccc2[nH]1` [Kynurenic acid], the “Z Score” value under setting [7] came to 0.7018. This molecule came in with a Z score under setting [1] of 0.702. Moreover, the Activity entry under setting [8] was “no”.

Turning to `CCN(CC)C(=O)N[C@H]1C[C@@H]2c3cccc4[nH]cc(c34)C[C@H]2N(C)C1` [R(+)-Terguride], the “Z Score” value under setting [9] was −2.004. This molecule showed a Z score under setting [3] of −2.004. Under setting [4], the Activity entry was “no”.

`Cc1cc(C)c(NC(=O)C[C@H](CC(=O)O)c2cccc3ccccc23)c(C(=O)N2CCC3(CCCC3)CC2)c1` [CR 2945]: for the setting “168 h, 3 µM”, the “Z Score” value amounted to 0.5451 and the Z score is recorded as 0.545. Further, under setting [8], the Activity result is reported as “no”.

`CNCCCN1c2ccccc2CCc2ccccc21` [Desipramine hydrochloride]: under setting [7], the “Z Score” value is reported as 0.1226. In addition, under setting [10], the Z score is 0.123. The Activity entry under setting [8] is recorded as “no”.

On to `CN(C)CCC(c1ccc(Cl)cc1)c1ccccn1.O=C(O)/C=C\C(=O)O` (single isomer, unassigned; (+)) [(+)-Chlorpheniramine maleate], for which the Activity result is on record as “no”. In addition, under setting [9], the “Z Score” value is −1.272. Besides, under setting [1], the Z score is −1.272.

`COc1cc([C@@H]2c3cc4c(cc3[C@H](O)[C@H]3COC(=O)[C@H]23)OCO4)cc(OC)c1OC` [Podophyllotoxin]: the “Z Score” value was −11.15. Further, under setting [1], the Z score was −11.147. For the same molecule, the Activity entry under setting [11] is listed as “yes”.

In the case of `O=c1cc(-c2ccc(O)cc2)oc2cc(O)cc(O)c12` [Apigenin], under “168 h, 3 µM”, the “Z Score” value was 1.824 and the Z score worked out at 1.824. In addition, the Activity entry under setting [4] was “no”.

`COc1ccccc1N1CCN(CCN(C(=O)c2ccc(I)cc2)c2ccccn2)CC1.Cl` [p-MPPI hydrochloride]: the “Z Score” value stood at 0.2606. Under setting [1], this molecule gave a Z score of 0.261. The Activity entry under setting [2] is “no”.

As for `CCCCCCCC/C=C\CCCCCCCC(=O)NCCO` [N-Oleoylethanolamine], where the note is “168 h, 3 µM”, the “Z Score” value is reported as −0.4116 and the Z score is −0.412. The Activity entry under setting [5] is listed as “no”.

Consider `COc1ccc(CN(CCN(C)C)c2ccccn2)cc1` [Pyrilamine maleate], for which, under setting [7], the “Z Score” value is on record as 0.9893. Under setting [1], this molecule registered a Z score of 0.989. The Activity result under setting [2] is on record as “no”.

For the molecule `NC(=O)NO` [Hydroxyurea], the “Z Score” value under setting [7] is given as 1.131. This molecule came in with a Z score under setting [1] of 1.131. For the same molecule, the Activity entry under setting [8] is given as “no”.

As to `O=C1CCC(N2C(=O)c3ccccc3C2=O)C(=O)N1` (racemic) [(±)-Thalidomide], the Z score under setting [3] is 0.521. The Activity entry under setting [4] is given as “no”.

As for `CCN(CC)CC(=O)Nc1c(C)cccc1C` [Lidocaine hydrochloride], the “Z Score” value under setting [6] is recorded as −0.1111. In addition, the Z score under setting [1] was −0.111. The Activity result under setting [8] is recorded as “no”.

As to `CNCC(O)c1ccc(O)cc1` (centres unmarked) [(B1)-Synephrine], the “Z Score” value is −0.1488.

As for `CC1=C(C(=O)O)N2C(=O)[C@@H](NC(=O)[C@H](N)c3ccccc3)[C@H]2SC1` [Cephalexin hydrate], under setting [9], the “Z Score” value is recorded as −3.966. The Z score under setting [1] is recorded as −3.966. Besides, the Activity entry under setting [11] is given as “yes”.

`CCCn1c(=O)c2[nH]c(-c3ccc(OCC(=O)NCCN)cc3)nc2n(CCC)c1=O` [Xanthine amine congener]: under setting [7], the “Z Score” value is on record as 0.001164. Under setting [3], this molecule displayed a Z score of 0.001. Further, under setting [4], the Activity result is on record as “no”.

As for `O=C(CCCN1CCC(O)(c2ccc(Cl)cc2)CC1)c1ccc(F)cc1` [Haloperidol], the “Z Score” value under setting [6] is on record as −0.7399. Besides, the Z score under setting [1] is reported as −0.740. The Activity entry under setting [8] is recorded as “no”.

Turning to `CN1[C@@H](CC(=O)c2ccccc2)CCC[C@H]1C[C@H](O)c1ccccc1` [alpha-Lobeline hydrochloride], the “Z Score” value under setting [7] is reported as 0.5499. The Z score under setting [1] came to 0.550. Under setting [8], the Activity result is “no”.

For the molecule `O=[N+]([O-])c1ccc(O[C@@H]2O[C@H](CO)[C@@H](O)[C@H](O)[C@H]2F)c([N+](=O)[O-])c1` [2,4-Dinitrophenyl 2-fluoro-2-deoxy-beta-D-glucopyranoside], under setting [7], the “Z Score” value is 0.772. The same molecule returned a Z score under setting [10] of 0.772. For the same molecule, the Activity entry under setting [8] was “no”.

For `CCCC(CCC)C(=O)O.[Na]` [Valproic acid sodium], the “Z Score” value under setting [6] is listed as −0.09493. The molecule also showed a Z score under setting [1] of −0.095. For the same molecule, the Activity entry under setting [2] is given as “no”.

`O=C1CCc2cc(OCCCCc3nnnn3C3CCCCC3)ccc2N1` [Cilostazol]: the “Z Score” value under setting [7] was 0.8219. Further, the Z score under setting [10] came to 0.822. The Activity result under setting [8] is on record as “no”.

In the case of `Br.C=CCN1CCc2cc(O)c(O)cc2C(c2ccccc2)C1` (centres unmarked) [(B1)-SKF 38393, N-allyl-, hydrobromide], the “Z Score” value is given as −1.59.

Regarding `COc1cc(-c2ccc(=O)[nH]n2)ccc1OC(F)F` [Zardaverine], the “Z Score” value under setting [6] was −0.3412. Moreover, under setting [3], the Z score was −0.341.

In the case of `CC[C@H](NC(=O)c1c(C)c(-c2ccccc2)nc2ccccc12)c1ccccc1` [SB 222200], the “Z Score” value is reported as −1.695. In addition, under setting [3], the Z score was −1.695. For the same molecule, under setting [4], the Activity result is “no”.

For the molecule `CC(CCc1ccccc1)NCC(O)c1ccc(O)c(C(N)=O)c1` (centres unmarked) [Labetalol hydrochloride], the Activity entry was “no”. In addition, the “Z Score” value under setting [6] is on record as −1.097. Moreover, the Z score under setting [1] was −1.097.

As for `COc1ccc2c(c1)c(CC(=O)O)c(C)n2Cc1ccc(Cl)cc1` [1-(4-Chlorobenzyl)-5-methoxy-2-methylindole-3-acetic acid], the “Z Score” value under setting [9] was −1.584. This molecule displayed a Z score under setting [3] of −1.584. Besides, the Activity result under setting [4] is “no”.

For `CN1C2CCC1CC(OC(c1ccccc1)c1ccc(Cl)cc1)C2.Cl` (centres unmarked), the “Z Score” value was −9.672. The molecule further showed a Z score under setting [1] of −9.672. Besides, the Activity result under setting [11] was “yes”.

With `COc1cc2c(CCNC(C)=O)c[nH]c2cc1Cl` [6-Chloromelatonin], the “Z Score” value under setting [9] is −1.659. The same molecule yielded a Z score under setting [10] of −1.659. Further, the Activity result under setting [8] is given as “no”.

As to `COC(=O)[C@@H](N)CCCN=C(N)N[N+](=O)[O-].Cl`, the “Z Score” value under setting [9] is on record as −1.411. For the same molecule, under setting [1], the Z score is −1.411. Moreover, under setting [2], the Activity result is “no”.

Consider `CC(Cc1ccc(O)cc1)NCC(O)c1cc(O)cc(O)c1` (centres unmarked) [Fenoterol hydrobromide], for which the “Z Score” value is on record as −1.841. Under setting [1], this molecule yielded a Z score of −1.841. For the same molecule, the Activity result under setting [8] is “no”.

Take `CN1CCC(=C2c3ccccc3CC(=O)c3sccc32)CC1` [Ketotifen fumarate]: the “Z Score” value under setting [7] came out at 0.9573. The molecule further came in with a Z score under setting [1] of 0.957. The Activity result under setting [8] is recorded as “no”.

`C=CC(N)CCC(=O)O` (racemic) [(±)-gamma-Vinyl GABA]: the Z score under setting [3] was −0.701. In addition, the Activity result under setting [4] is recorded as “no”.

On to `Cc1cnc(C(=O)NCCc2ccc(S(=O)(=O)NC(=O)NC3CCCCC3)cc2)cn1` [Glipizide], for which the Activity entry is on record as “no”. Moreover, the “Z Score” value under setting [6] is listed as −0.8295. Moreover, the Z score under setting [1] is −0.830.

Take `CC[C@@H]1/C=C/C=C/C[C@H](C)[C@H](O)[C@](C)(O)C(=O)[C@H](C)[C@@H](O)[C@H](C)C(=O)[C@H](C)[C@@H](O)[C@H](C)/C=C/C(=O)O[C@H]2[C@@H](C)[C@@H](CC1)O[C@@]1(CC[C@@H](C)[C@@H](C[C@H](C)O)O1)[C@@H]2C` [Oligomycin A]: the “Z Score” value under setting [9] is reported as −9.731. For the same molecule, under setting [1], the Z score is reported as −9.731. Further, the Activity entry under setting [2] is “yes”.

Regarding `CCCCCCC(C)(C)c1ccc([C@@H]2C[C@H](O)CC[C@H]2CCCO)c(O)c1` [CP55940], the “Z Score” value is 1.396. The same molecule returned a Z score under setting [3] of 1.396. Also, the Activity entry under setting [4] is given as “no”.

As to `CC(C)NCC(O)COc1cccc2ccccc12.Cl` (centres unmarked) [(B1)-Propranolol hydrochloride], the “Z Score” value under setting [7] was found to be 0.3567.

Consider `CC(=O)C(C)=O` [2,3-Butanedione], for which the “Z Score” value is reported as −1.642. Moreover, the Z score under setting [10] is reported as −1.642. The Activity entry under setting [8] is reported as “no”.
